Measurements as given in US6737383B1, “Herbicidal oxadiazolidines” (priority 1999, dated 2004).

Assays:
[1] = tested on: morningglory; test: Test B pre/postemergence morningglory; type: in vivo, Ipomoea hederacea
In short: (§1)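 Test chemicals in a non-phytotoxic solvent mixture with surfactant were sprayed preemergence onto planted seeds and postemergence onto plants 2 to 18 cm tall (1- to 4-leaf stage). After twelve to sixteen days in a greenhouse, injury was visually rated against untreated controls from 0 (no effect) to 10 (complete control).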

[2] = tested on: rice; test: Test B flood test rice; type: in vivo, Oryza sativa
In short: (§2)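 Flood test on plants grown to the 2-leaf stage; treated plants kept in greenhouse twelve to sixteen days, then visually rated against controls on a 0 (no effect) to 10 (complete control) scale.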

[3] = tested on: wild oat; test: Test B pre/postemergence wild oat; type: in vivo, Avena fatua
In short: as §1

[4] = tested on: duck salad; test: Test B flood test duck salad; type: in vivo, Heteranthera limosa
In short: as §2

[5] = tested on: purple nutsedge; test: Test B pre/postemergence purple nutsedge; type: in vivo, Cyperus rotundus
In short: as §1

[6] = tested on: cocklebur; test: Test B pre/postemergence cocklebur; type: in vivo, Xanthium strumarium
In short: as §1

[7] = tested on: crabgrass; test: Test B pre/postemergence crabgrass; type: in vivo, Digitaria sanguinalis
In short: as §1

[8] = tested on: velvetleaf; test: Test B pre/postemergence velvetleaf; type: in vivo, Abutilon theophrasti
In short: as §1

[9] = tested on: bedstraw; test: Test B pre/postemergence bedstraw; type: in vivo, Galium aparine
In short: as §1

[10] = tested on: surinam grass; test: Test B pre/postemergence surinam grass; type: in vivo, Brachiaria decumbens
In short: as §1

[11] = tested on: giant foxtail; test: Test B pre/postemergence giant foxtail; type: in vivo, Setaria faberii
In short: as §1

[12] = tested on: wheat; test: Test B pre/postemergence wheat; type: in vivo, Triticum aestivum
In short: as §1

[13] = tested on: smallflower flatsedge; test: Test B flood test smallflower flatsedge; type: in vivo, Cyperus difformis
In short: as §2

[14] = tested on: corn; test: Test B pre/postemergence corn; type: in vivo, Zea mays
In short: as §1

[15] = tested on: blackgrass; test: Test B pre/postemergence blackgrass; type: in vivo, Alopecurus myosuroides
In short: as §1

[16] = tested on: bamyardgrass; test: Test B flood test barnyardgrass; type: in vivo, Echinochloa crus-galli
In short: as §2

[17] = Postemergence, Rate 62 g/ha, scale 0 to 10, 0 is no effect, 10 is complete control
[18] = Postemergence, Rate 125 g/ha, scale of 0 to 10 where 0 is no effect and 10 is complete control
[19] = Postemergence, Rate 250 g/ha, scale of 0 to 10, 0 is no effect, 10 is complete control
[20] = Postemergence, Rate 500 g/ha, scale of 0 to 10 where 0 is no effect and 10 is complete control
[21] = Preemergence, Rate 62 g/ha, scale 0 to 10 (0 no effect, 10 complete control)
[22] = Preemergence, Rate 125 g/ha, scale of 0 to 10 where 0 is no effect and 10 is complete control
[23] = Preemergence, Rate 250 g/ha, scale 0 to 10 (0 no effect, 10 complete control)
[24] = Preemergence, Rate 500 g/ha, scale of 0 to 10 where 0 is no effect and 10 is complete control
[25] = Rate 62 g/ha, flood test species, Pre-emergence, visual evaluation after twelve to sixteen days
[26] = Rate 125 g/ha, under heading Pre-emergence, flood test species, visual evaluation after twelve to sixteen days
[27] = Rate 250 g/ha, Pre-emergence (flood test species), scale 0 to 10, 0 is no effect, 10 is complete control
[28] = Rate 500 g/ha, Pre-emergence section of Table B, 0 to 10 scale (0 no effect, 10 complete control)

## CC(C)N(C(=O)n1oc(=O)n(CNC(=O)c2ccccc2)c1=O)c1ccc(F)cc1F [Compound 619]
[1]; [17]
  Plant response rating, Morningglory: 0
[1]; [18]
  Plant response rating, Morningglory: 1
[1]; [19]
  Morningglory plant response rating: 1
[1]; [20]
  Plant response rating, Morningglory: 1
[1]; [21]
  Morningglory plant response rating: 0
[1]; [22]
  Morningglory plant response rating: 0
[1]; [23]
  Plant response rating, Morningglory: 0
[1]; [24]
  Plant response rating, Morningglory: 0
[2]; [25]
  Plant response rating, Rice (0 to 10 scale, 0 is no effect, 10 is complete control): 0
[2]; [26]
  Rice plant response rating (0 to 10 scale, 0 is no effect, 10 is complete control): 0
[2]; [27]
  Rice plant response rating: 0
[2]; [28]
  Rice plant response rating: 0
[3]; [17]
  Plant response rating, Wild oats: 0
[3]; [18]
  Plant response rating, Wild oats: 0
[3]; [19]
  Wild oats plant response rating: 0
[3]; [21]
  Wild oats plant response rating: 0
[3]; [22]
  Wild oats plant response rating: 0
[3]; [23]
  Plant response rating, Wild oats: 0
[3]; [24]
  Plant response rating, Wild oats: 0
[4]; [25]
  Plant response rating, Ducksalad (0 to 10 scale, 0 is no effect, 10 is complete control): 0
[4]; [26]
  Ducksalad plant response rating (0 to 10 scale, 0 is no effect, 10 is complete control): 0
[4]; [27]
  Ducksalad plant response rating: 0
[4]; [28]
  Ducksalad plant response rating: 0
[5]; [17]
  Plant response rating, Nutsedge: 0
[5]; [18]
  Plant response rating, Nutsedge: 0
[5]; [19]
  Nutsedge plant response rating: 0
[5]; [20]
  Plant response rating, Nutsedge: 0
[5]; [21]
  Nutsedge plant response rating: 0
[5]; [22]
  Nutsedge plant response rating: 0
[5]; [23]
  Plant response rating, Nutsedge: 0
[6]; [17]
  Plant response rating, Cocklebur: 0
[6]; [18]
  Plant response rating, Cocklebur: 0
[6]; [19]
  Cocklebur plant response rating: 0
[6]; [20]
  Plant response rating, Cocklebur: 0
[6]; [21]
  Cocklebur plant response rating: 0
[6]; [22]
  Cocklebur plant response rating: 0
[6]; [23]
  Plant response rating, Cocklebur: 0
[6]; [24]
  Plant response rating, Cocklebur: 0
[7]; [17]
  Plant response rating, Crabgrass: 0
[7]; [18]
  Plant response rating, Crabgrass: 0
[7]; [19]
  Crabgrass plant response rating: 0
[7]; [20]
  Plant response rating, Crabgrass: 2
[7]; [21]
  Crabgrass plant response rating: 0
[7]; [22]
  Crabgrass plant response rating: 1
[7]; [23]
  Plant response rating, Crabgrass: 6
[7]; [24]
  Plant response rating, Crabgrass: 8
[8]; [17]
  Plant response rating, Velvetleaf: 0
[8]; [18]
  Plant response rating, Velvetleaf: 0
[8]; [19]
  Velvetleaf plant response rating: 2
[8]; [21]
  Velvetleaf plant response rating: 0
[8]; [22]
  Velvetleaf plant response rating: 0
[8]; [23]
  Plant response rating, Velvetleaf: 0
[8]; [24]
  Plant response rating, Velvetleaf: 4
[9]; [17]
  Plant response rating, Bedstraw: 0
[9]; [19]
  Bedstraw plant response rating: 0
[9]; [23]
  Plant response rating, Bedstraw: 0
[9]; [24]
  Bedstraw plant response rating: 0
[10]; [17]
  Plant response rating, B. signalgrass: 0
[10]; [18]
  Plant response rating, B. signalgrass: 0
[10]; [19]
  B. signalgrass plant response rating: 0
[10]; [20]
  Plant response rating, B. signalgrass: 2
[10]; [21]
  B. signalgrass plant response rating: 0
[10]; [22]
  B. signalgrass plant response rating: 0
[10]; [23]
  Plant response rating, B. signalgrass: 0
[10]; [24]
  B. signalgrass plant response rating: 3
[11]; [17]
  Plant response rating, Giant foxtail: 0
[11]; [18]
  Plant response rating, Giant foxtail: 0
[11]; [19]
  Giant foxtail plant response rating: 0
[11]; [20]
  Plant response rating, Giant foxtail: 3
[11]; [21]
  Giant foxtail plant response rating: 0
[11]; [22]
  Giant foxtail plant response rating: 3
[11]; [23]
  Plant response rating, Giant foxtail: 7
[11]; [24]
  Plant response rating, Giant foxtail: 8
[12]; [17]
  Plant response rating, Wheat: 0
[12]; [18]
  Plant response rating, Wheat: 0
[12]; [19]
  Wheat plant response rating: 0
[12]; [21]
  Wheat plant response rating: 0
[12]; [22]
  Wheat plant response rating: 0
[12]; [23]
  Plant response rating, Wheat: 0
[12]; [24]
  Plant response rating, Wheat: 0
[13]; [25]
  Plant response rating, S. Flatsedge (0 to 10 scale, 0 is no effect, 10 is complete control): 0
[13]; [26]
  S. Flatsedge plant response rating (0 to 10 scale, 0 is no effect, 10 is complete control): 0
[13]; [27]
  S. Flatsedge plant response rating: 0
[13]; [28]
  S. Flatsedge plant response rating: 0
[14]; [17]
  Plant response rating, Corn: 0
[14]; [18]
  Plant response rating, Corn: 0
[14]; [19]
  Corn plant response rating: 0
[14]; [20]
  Plant response rating, Corn: 0
[14]; [21]
  Corn plant response rating: 0
[14]; [22]
  Corn plant response rating: 0
[14]; [23]
  Plant response rating, Corn: 0
[14]; [24]
  Plant response rating, Corn: 2
[15]; [17]
  Plant response rating, Blackgrass: 0
[15]; [18]
  Plant response rating, Blackgrass: 0
[15]; [19]
  Blackgrass plant response rating: 0
[15]; [20]
  Plant response rating, Blackgrass: 0
[15]; [21]
  Blackgrass plant response rating: 0
[15]; [22]
  Blackgrass plant response rating: 0
[15]; [23]
  Plant response rating, Blackgrass: 0
[15]; [24]
  Blackgrass plant response rating: 0
[16]; [25]
  Plant response rating, Barnyardgrass (0 to 10 scale, 0 is no effect, 10 is complete control): 0
[16]; [26]
  Barnyardgrass plant response rating (0 to 10 scale, 0 is no effect, 10 is complete control): 0
[16]; [27]
  Barnyardgrass plant response rating: 0
[16]; [28]
  Barnyardgrass plant response rating: 0
